Results taken from patent US4864023A, “Pyrido(3,2,1-IJ)-1,3,4-benzoxadiazine derivatives” (priority 1988, dated 1989).
In brackets after ≈: the same amount, converted by molar mass. Structures can show the parent of a compound that is named as a salt. Where two headings read alike, the source gives them in different places.

Tests used:
Escherichia coli ML4707 = assay: in vivo therapeutic efficacy, lethal systemic infection in mice; details: E. coli ML4707 i.p. infection, ICR mice, p.o. at time of injection, mortality 5 days
Method: The in vivo antibacterial activities of pyrido[3,2,1-ij]-1,3,4-benzoxadiazine derivatives prepared by Example 5, Example 30, Example 65 and Example 66 as mentioned below were tested against lethal infection of Escherichia coli ML4707, Pseudomonas aeruginosa 4au542 and Streptococcus pneumoniae 6-001. ICR mice weighing about 20 g were infected by intraperitoneal injection of a corresponding bacterial suspension. The test compounds were administered orally or subcutaneously at the time of injection. […] The respective 50% effective dose (ED50, mg/kg) which protects 50% of the animals from death caused by infection, is shown in Table 3.

[1] = acute toxicity by oral administration; details: mouse, in vivo; oral administration, ICR mice; read-out: LD50
Source text: The acute toxicity of these compounds was examined by oral administration in ICR mice.

[2] = system: Staphylococcus epidermidis IFO 12993; assay: in vitro antibacterial activity, standard agar dilution method; assay type: cell-based; details: IFO12993, aerobic, read-out: minimum inhibitory concentration (MIC)
[3] = system: Bordetella bronchiseptica ATCC 4617; assay: as above; assay type: cell-based; details: ATCC4617, aerobic, read-out: minimum inhibitory concentration (MIC)
Escherichia coli NR 2630 = assay: as above; assay type: cell-based
[4] = system: Staphylococcus aureus Smith; assay: as above; assay type: cell-based; details: read-out: minimum inhibitory concentration (MIC)
[5] = system: Enterobacter cloacae NR 2946; assay: as above; assay type: cell-based; details: NR2946, aerobic, read-out: minimum inhibitory concentration (MIC)
[6] = system: Proteus vulgaris OX19 ATCC 6898; assay: as above; assay type: cell-based; details: ATCC6898, aerobic, read-out: minimum inhibitory concentration (MIC)
[7] = system: Citrobacter freundii IFO 12681; assay: as above; assay type: cell-based; details: IFO12681, aerobic, read-out: minimum inhibitory concentration (MIC)
[8] = system: Serratia marcescens IFO 12648; assay: as above; assay type: cell-based; details: IFO12648, aerobic, read-out: minimum inhibitory concentration (MIC)
[9] = system: Pseudomonas aeruginosa NR 2950; assay: as above; assay type: cell-based; details: NR2950, aerobic, read-out: minimum inhibitory concentration (MIC)
[10] = system: Pseudomonas stutzeri IFO 12695; assay: as above; assay type: cell-based; details: Stutzerimonas stutzeri, IFO12695, aerobic, read-out: minimum inhibitory concentration (MIC)
[11] = system: Pseudomonas aeruginosa A3; assay: as above; assay type: cell-based; details: aerobic, read-out: minimum inhibitory concentration (MIC)
[12] = system: Staphylococcus epidermidis NR 2942; assay: as above; assay type: cell-based; details: NR2942, aerobic, read-out: minimum inhibitory concentration (MIC)
[13] = system: Staphylococcus aureus NR 2855; assay: as above; assay type: cell-based; details: NR2855; Staphylococcus aureus NR 2855; aerobic; agar dilution; read-out: minimum inhibitory concentration (MIC)
[14] = system: Enterobacter aerogenes NR 2945; assay: as above; assay type: cell-based; details: Klebsiella aerogenes, NR2945, aerobic, read-out: minimum inhibitory concentration (MIC)
[15] = system: Klebsiella pneumoniae FDA PCI 602; assay: as above; assay type: cell-based; details: FDAPCI602, aerobic, read-out: minimum inhibitory concentration (MIC)
[16] = system: Alcaligenes faecalis IFO 13111; assay: as above; assay type: cell-based; details: IFO13111, aerobic, read-out: minimum inhibitory concentration (MIC)
[17] = system: Bacillus subtilis PCI 219; assay: as above; assay type: cell-based; details: PCI219, aerobic, read-out: minimum inhibitory concentration (MIC)
[18] = system: Salmonella typhimurium IFO 12529; assay: as above; assay type: cell-based; details: Salmonella enterica, aerobic, read-out: minimum inhibitory concentration (MIC)
[19] = system: Proteus rettgeri ATCC 14505; assay: as above; assay type: cell-based; details: Providencia rettgeri, ATCC14505, aerobic, read-out: minimum inhibitory concentration (MIC)
[20] = system: Staphylococcus aureus FDA 209P JC-1; assay: as above; assay type: cell-based; details: FDA209P, read-out: minimum inhibitory concentration (MIC)
[21] = system: Enterococcus faecalis NR 2943; assay: as above; assay type: cell-based; details: NR2943, aerobic, read-out: minimum inhibitory concentration (MIC)
[22] = system: Escherichia coli NIHJ JC-2; assay: as above; assay type: cell-based; details: NIHJJC2, aerobic, read-out: minimum inhibitory concentration (MIC)
[23] = NR2630, Escherichia coli NR 2630, aerobic, agar dilution, read-out: minimum inhibitory concentration (MIC)
[24] = Staphylococcus aureus Smith, aerobic, agar dilution
[25] = Staphylococcus aureus FDA 209P JC-1, aerobic, agar dilution

Row | Structure (SMILES) | LD50 [1] [mg/kg] | MIC [2] [µg/mL] | MIC [3] [µg/mL] | MIC [5] [µg/mL] | MIC [6] [µg/mL] | MIC [7] [µg/mL] | MIC [8] [µg/mL] | MIC [9] [µg/mL] | MIC [10] [µg/mL] | MIC [11] [µg/mL] | MIC [12] [µg/mL] | MIC [13] [µg/mL] | MIC [14] [µg/mL] | MIC [15] [µg/mL] | MIC [16] [µg/mL] | MIC [17] [µg/mL] | MIC [18] [µg/mL] | MIC [19] [µg/mL] | MIC [21] [µg/mL] | MIC [22] [µg/mL] | other results
1 | CN1COc2c(N3CCC(N)C3)c(F)cc3c(=O)c(C(=O)O)cn1c23 (stereo not shown) [Example 66, 10-(3-amino-1-pyrrolidinyl)-9-fluoro-3-methyl-7-oxo-2,3-dihydro-7H-pyrido[3,2,1-ij]-1,3,4-benzoxadiazine-6-carboxylic acid hydrochloride] | – | – | – | – | – | – | – | – | – | – | – | – | – | – | – | – | – | – | – | – | 50% effective dose (ED50) (Escherichia coli ML4707; hydrochloride, 7200 min): 0.51 mg/kg
2 | CN1COc2c(-n3ccnc3)c(F)cc3c(=O)c(C(=O)O)cn1c23 [Example 56, 9-fluoro-10-(1-imidazolyl)-3-methyl-7-oxo-2,3-dihydro-7H-pyrido[3,2,1-ij]-1,3,4-benzoxadiazine-6-carboxylic acid] | > 2000 | 0.39 (≈ 1.18 µM) | 3.13 (≈ 9.48 µM) | 0.05 (≈ 0.151 µM) | 0.013 (≈ 0.0394 µM) | 0.1 (≈ 0.303 µM) | 0.78 (≈ 2.36 µM) | 6.25 (≈ 18.9 µM) | 0.0033 (≈ 0.00999 µM) | 3.13 (≈ 9.48 µM) | 0.39 (≈ 1.18 µM) | 0.78 (≈ 2.36 µM) | 0.1 (≈ 0.303 µM) | 0.39 (≈ 1.18 µM) | 3.13 (≈ 9.48 µM) | 0.2 (≈ 0.606 µM) | 0.05 (≈ 0.151 µM) | 1.56 (≈ 4.72 µM) | 12.5 (≈ 37.8 µM) | 0.1 (≈ 0.303 µM) | MIC (Escherichia coli NR 2630; [23]): 0.0065 µg/mL (≈ 0.0197 µM); MIC ([4]; Staphylococcus aureus): 0.39 µg/mL (≈ 1.18 µM); MIC ([20]; Staphylococcus aureus): 0.39 µg/mL (≈ 1.18 µM)
3 | CN1COc2c(N3CCNCC3)c(F)cc3c(=O)c(C(=O)O)cn1c23 [Example 6, 9-fluoro-3-methyl-7-oxo-10-(1-piperazinyl)-2,3-dihydro-7H-pyrido[3,2,1-ij]-1,3,4-benzoxadiazine-6-carboxylic acid] | > 2000 | 1.56 (≈ 4.48 µM) | 6.25 (≈ 17.9 µM) | 0.025 (≈ 0.0718 µM) | 0.013 (≈ 0.0373 µM) | 0.013 (≈ 0.0373 µM) | 0.1 (≈ 0.287 µM) | 0.78 (≈ 2.24 µM) | 0.025 (≈ 0.0718 µM) | 0.1 (≈ 0.287 µM) | 1.56 (≈ 4.48 µM) | 3.13 (≈ 8.99 µM) | 0.013 (≈ 0.0373 µM) | 0.1 (≈ 0.287 µM) | 3.13 (≈ 8.99 µM) | 0.1 (≈ 0.287 µM) | 0.013 (≈ 0.0373 µM) | 0.1 (≈ 0.287 µM) | 12.5 (≈ 35.9 µM) | 0.025 (≈ 0.0718 µM) | MIC (Escherichia coli NR 2630; Escherichia coli, NR2630, read-out: minimum inhibitory concentration (MIC)): 0.025 µg/mL (≈ 0.0718 µM); MIC ([4]; Staphylococcus aureus): 0.39 µg/mL (≈ 1.12 µM); MIC ([20]; Staphylococcus aureus): 0.39 µg/mL (≈ 1.12 µM)
4 | CNCC1CCN(c2c(F)cc3c(=O)c(C(=O)O)cn4c3c2OCN4C)C1 (stereo not shown) [Example 17, 9-fluoro-3-methyl-10-[3-[(methylamino)methyl]-1-pyrrolidinyl]-7-oxo-2,3-dihydro-7H-pyrido[3,2,1-ij]-1,3,4-benzoxadiazine-6-carboxylic acid] | > 2000 | 0.2 (≈ 0.531 µM) | 6.25 (≈ 16.6 µM) | 0.1 (≈ 0.266 µM) | 0.025 (≈ 0.0664 µM) | 0.2 (≈ 0.531 µM) | 0.78 (≈ 2.07 µM) | 6.25 (≈ 16.6 µM) | 0.025 (≈ 0.0664 µM) | 0.39 (≈ 1.04 µM) | 0.1 (≈ 0.266 µM) | 0.2 (≈ 0.531 µM) | 0.05 (≈ 0.133 µM) | 0.78 (≈ 2.07 µM) | 6.25 (≈ 16.6 µM) | 0.013 (≈ 0.0345 µM) | 0.05 (≈ 0.133 µM) | 1.56 (≈ 4.14 µM) | 1.56 (≈ 4.14 µM) | 0.1 (≈ 0.266 µM) | MIC (Escherichia coli NR 2630; [23]): 0.025 µg/mL (≈ 0.0664 µM); MIC [4, 24]: 0.025 µg/mL (≈ 0.0664 µM); MIC [20, 25]: 0.05 µg/mL (≈ 0.133 µM)
5 | CCOC(=O)c1cn2c3c(c(N4CCC(N)C4)c(F)cc3c1=O)OCN2C (stereo not shown) [Example 65, ethyl 10-(3-amino-1-pyrrolidinyl)-9-fluoro-3-methyl-7-oxo-2,3-dihydro-7H-pyrido[3,2,1-ij]-1,3,4-benzoxadiazine-6-carboxylate] | – | – | – | – | – | – | – | – | – | – | – | – | – | – | – | – | – | – | – | – | ED50 (Escherichia coli ML4707; Escherichia coli, ML4707, po, 120 h, read-out: 50% effective dose (ED50)): 1.12 mg/kg
6 | CCNCC1CCN(c2c(F)cc3c(=O)c(C(=O)O)cn4c3c2OCN4C)C1 (stereo not shown) [Example 18] | > 2000 | 0.1 (≈ 0.256 µM) | 3.13 (≈ 8.02 µM) | 0.05 (≈ 0.128 µM) | 0.025 (≈ 0.064 µM) | 0.1 (≈ 0.256 µM) | 0.39 (≈ 0.999 µM) | 6.25 (≈ 16 µM) | 0.025 (≈ 0.064 µM) | 0.78 (≈ 2 µM) | 0.1 (≈ 0.256 µM) | 0.1 (≈ 0.256 µM) | 0.05 (≈ 0.128 µM) | 0.39 (≈ 0.999 µM) | 6.25 (≈ 16 µM) | 0.013 (≈ 0.0333 µM) | 0.025 (≈ 0.064 µM) | 0.39 (≈ 0.999 µM) | 1.56 (≈ 4 µM) | 0.05 (≈ 0.128 µM) | MIC (Escherichia coli NR 2630; [23]): 0.013 µg/mL (≈ 0.0333 µM); MIC [4, 24]: 0.025 µg/mL (≈ 0.064 µM); MIC [20, 25]: 0.05 µg/mL (≈ 0.128 µM)
